# Results as given in patent US8568972B2, “Substances causing differentiation” (Medicyte GmbH, priority 2000, dated 2013).
# Entries after “also recorded” stand apart in the source; their conditions may differ.
# What was measured:
# Assay type in all cases: cell-based, human
# tumor cells U87 = assay: Change in cell morphology (differentiation); conditions: high concentrations
# U87H-GFP [1] = assay: Flow cytometry (FACS) of H-GFP fusion gene expression under the hCMV promoter in reporter cell line
# U87H-GFP [2] = assay: as above; conditions: 48 h; for increase in the fluorescence intensity mean value: compared to untreated cells
# Excerpt: (§1) U87H-GFP is a cell line derived from the human glioblastoma cell line U87 after stable transfection with plasmid pCMV-hygroEGFP. This plasmid which is integrated into the genomic DNA is derived from PCR-Script™ (Stratagene) and carries a fusion gene downstream of the human CMV promoter. This fusion gene contains the gene for resistance to hygromycin, which is linked to the gene coding for the enhanced green fluorescent protein (EGFP). The resulting gene (called H-GFP) codes for a protein which imparts resistance to hygromycin B and which can be readily detected by fluorescence microscopy and flow cytometry analysis. […] U87H-GFP and the parent line U87 were cultured in Dulbecco's Modified Eagle's Medium, (D-MEM, low glucose, Gibco, BRL) supplemented with 10% fetal calf serum (Seromed), 100 units/ml penicillin, 100 μg/ml streptomycin and 1 μg/ml amphotericine B (Gibco, BRL) at 37° C. in a humidified atmosphere containing 5% CO2. For the U87H-GFP cell line, the culture medium was supplemented with 600 units/ml hygromycin B (Calbiochem). U87H-GFP and the parent cells were seeded at 1-2×10^5 cells/well on 6-well plates (Nuclon, NUNC), using D-MEM without hygromycin B, and incubated for adhesion for 24 h. This was followed by adding 5-azacytidine and trichostatin A (Sigma Chemicals, Co.) at different final concentrations (2.5-5-10-20-40 μM for Aza; from 10 nM to 3 μM for TSA) to the culture medium. After two days of treatment, fluorescence microscopy and flow cytometry analyses were carried out. In order to prepare samples for FACS analysis, cells were incubated in the 6-well plates in 0.05% trypsin containing 0.5 mM EDTA (Gibco, BRL) at 37° C. for 5 min, followed by stopping the trypsin action by adding two volumes of culture medium. The cells were harvested, centrifuged at 500×g for 5 min and resuspended in 1 ml complete D-MEM. In order to stain dead cells, propidium iodide (final concentration 10 μg/ml) was added to each sample. The cells were then again centrifuged and resuspended in phosphate-buffered saline (PBS 1×, pH 7.4), before analyzing them by means of FACS. The cells were analyzed using FACScalibur (Becton Dickinson) with the flow rate corresponding to approximately 500 events/s. In order to exactly define a cell population and to exclude cell debris and aggregates, a region of interest was established on the dot plot (FSC compared to SSC). In the two-parameter histogram of propidium iodide, dead cells were distinguished by comparison to forward angle light scatter (FSC). The fluorescence intensity of individual cells was measured on a logarithmic scale, each logarithmic histogram representing 2×10^4 counted events. The fluorescence intensity mean value (MFI) was the parameter used for defining the increase in the fluorescence intensity in each cell population.
# U87 [3] = assay: Cell cycle analysis (BrdU incorporation / 7-AAD, FACS), parent line; conditions: U87, 5 μM Aza, 2 days
# Description: (§2) U87H-GFP and the parent cells were seeded at 5×10^3/cm^2 in T25 flasks (Nuclon, NUNC), using D-MEM without hygromycin B for both cell lines. Half of the flasks were treated with 5 μM Aza and the other, as a negative control, without any medicaments. After 42 h, BrdU was added to the medium (final concentration of 10 μM), and 6 h later the cells were prepared for cell cycle analysis. The cells were harvested, centrifuged at 500×g for 5 min and fixed in chilled 70% strength ethanol for 20 min. BrdU incorporation into the DNA was detected by using 3×10^5 cells of each Aza-treated or untreated cell line. PBS 1×/0.5% BSA (washing buffer) was added, and the cells were centrifuged at 500×g for 5 min. The pellet was then resuspended in a denaturing solution (HCl 1M, PBS 0.5×BSA 0.5%) and washed again after 20 min. This was followed by re-suspending the pellet in 0.1M sodium borate (Na2B4O7), pH 8.5, for 2 min and then adding the washing buffer. After this passage, the total volume of each sample was divided into two halves (one half being used for the isotype antibody, the other one for the BrdU antibody), centrifuged at 500×g for 5 min, resuspended in the buffer containing the anti-isotype or anti-BrdU monoclonal antibodies (Becton Dickinson) and, after 30 min, washed with PBS 1×/0.5% BSA. The supernatant was discarded and the pellet resuspended in RNAse A (final concentration 100 μg/ml); the DNA was stained by also adding to the solution 7-AAD (Via-PROBE, Becton Dickinson). After 1 h (in the dark), the samples were washed and then resuspended in PBS 1×/0.5% BSA. DNA fluorescence of the nuclei (approximately 10^4 nuclei were analyzed for each cell population) was measured by means of the abovementioned FACScan flow cytometer (Becton Dickinson) and the percentages of cells in the G0 and G1, S, G2 and M phases of the cell cycle were analyzed on the basis of the FACScan software programs.
# U87 [4] = assay: Flow cytometry (FACS) of background fluorescence in parent cell line (negative control line); conditions: 48 h, parent cells
# Excerpt: as §1, with “In the two-parameter histogram of propidium iodide, dead cells were distinguished by comparison to forward angle light scatter (FSC).” left out
# U87H-GFP [5] = assay: Cell cycle analysis (BrdU incorporation / 7-AAD, FACS), reporter line; conditions: 5 μM Aza, 2 days
# Description: as §2
# U87H-GFP [6] = assay: Fluorescence microscopy of H-GFP gene expression; conditions: for increase in the green fluorescent signal: 48 h; for upregulation of the CMV promoter, visible due to increased GFP fluorescence: very low concentrations, within two days, after removal of hygromycin
# Description: U87H-GFP and the parent cells were seeded at 1-2×10^5 cells/well on 6-well plates (Nuclon, NUNC), using D-MEM without hygromycin B, and incubated for adhesion for 24 h. This was followed by adding 5-azacytidine and trichostatin A (Sigma Chemicals, Co.) at different final concentrations (2.5-5-10-20-40 μM for Aza; from 10 nM to 3 μM for TSA) to the culture medium. After two days of treatment, fluorescence microscopy and flow cytometry analyses were carried out. Approximately 10^5 cells of each cell line were seeded on polylysine-coated coverslips, treated with different concentrations of Aza and TSA for 48 h and then fixed in 5% formaldehyde at room temperature for 30 min. This was followed by analyzing all samples under a fluorescence microscope (Axiophot, Zeiss, Germany) and recording various images which correspond to the different final concentrations of each medicament (FIG. 1).
# U87H-GFP [7] = assay: Toxicity, number of living cells observed by FACS; conditions: final TSA concentrations of more than 3 μM (data not shown)
# Description: In order to prepare samples for FACS analysis, cells were incubated in the 6-well plates in 0.05% trypsin containing 0.5 mM EDTA (Gibco, BRL) at 37° C. for 5 min, followed by stopping the trypsin action by adding two volumes of culture medium. The cells were harvested, centrifuged at 500×g for 5 min and resuspended in 1 ml complete D-MEM. In order to stain dead cells, propidium iodide (final concentration 10 μg/ml) was added to each sample. The cells were then again centrifuged and resuspended in phosphate-buffered saline (PBS 1×, pH 7.4), before analyzing them by means of FACS.
# In order to exactly define a cell population and to exclude cell debris and aggregates, a region of interest was established on the dot plot (FSC compared to SSC). In the two-parameter histogram of propidium iodide, dead cells were distinguished by comparison to forward angle light scatter (FSC). The fluorescence intensity of individual cells was measured on a logarithmic scale, each logarithmic histogram representing 2×10^4 counted events. The fluorescence intensity mean value (MFI) was the parameter used for defining the increase in the fluorescence intensity in each cell population.
# [8] = U87H-GFP, listed as Azacytidine
compound,measurement,setting,value
"Nc1ncn([C@@H]2O[C@H](CO)[C@@H](O)[C@H]2O)c(=O)n1 [Aza, 5′-azacytidine]",change in the morphology of the cells,tumor cells U87,a change in the morphology of the cells was observed
same,shift of FACS fluorescence profile toward higher fluorescence intensity,"U87H-GFP [1]; 0.5 μM Aza, 48 h",completely superpose those of the untreated cells
same,increase in the fluorescence intensity mean value,"U87H-GFP [1]; 1 μM Aza alone, 48 h, compared to untreated cells",approximately two-fold; also recorded: about a two-fold
same,shift in the fluorescence intensity average,"U87H-GFP [1]; Aza retained for 144 h, identical final concentrations, versus 48 h experiment (data not shown)",same shift
same,shift of FACS fluorescence profile toward higher fluorescence intensity,U87H-GFP [2]; 2.5 μM Aza,already clearly visible
same,increase in the fluorescence intensity mean value,U87H-GFP [2]; 2.5 μM Aza,two-fold
same,shift of FACS fluorescence profile toward higher fluorescence intensity,U87H-GFP [2]; 20 μM Aza,clearly visible; also recorded: well defined
same,increase in the fluorescence intensity mean value,U87H-GFP [2]; 20 μM Aza,three-fold
same,Percentages of cells in G1-G0,U87 [3],62.61 ± 0.47%
same,Percentages of cells in G2,U87 [3],13.1 ± 2.36%
same,Percentages of cells in M,U87 [3],10.58 ± 2.85%
same,Percentages of cells in S,U87 [3],13.54 ± 1.25%
same,changes in the cell cycle phases,U87 [3],significant changes
same,shift of FACS fluorescence profile,U87 [4]; 20 μM Aza,small shift
same,increase in the fluorescence intensity mean value,U87 [4]; highest concentration used (40 μM Aza),approximately two-fold; also recorded: less than twice
same,Percentages of cells in G1-G0,U87H-GFP [5]; U87 H-GFP,61.53 ± 4.06 %
same,Percentages of cells in G2,U87H-GFP [5]; U87 H-GFP,8.77 ± 1.44%
same,Percentages of cells in M,U87H-GFP [5]; U87 H-GFP,16.26 ± 2.83 %
same,Percentages of cells in S,U87H-GFP [5]; U87 H-GFP,13.3 ± 3.26 %
same,change in percentage of cells in G2 versus untreated,U87H-GFP [5]; U87 H-GFP,increased number
same,effect on different cell cycle phases (apart from G2),U87H-GFP [5]; U87 H-GFP,no significant differences
same,change in percentage of cells in G2 versus untreated,U87H-GFP [5]; [8],small increase
same,effect on different cell cycle phases (apart from G2),U87H-GFP [5]; [8],no significant effect
same,increase in the green fluorescent signal,U87H-GFP [6]; 20 μM Aza,clearly defined
same,"upregulation of the CMV promoter, visible due to increased GFP fluorescence",U87H-GFP [6],very strong upregulation
"CC(/C=C/C(=O)NO)=C\[C@@H](C)C(=O)c1ccc(N(C)C)cc1 [TSA, trichostatin A]",change in the morphology of the cells,tumor cells U87,a change in the morphology of the cells was observed
same,"toxicity, number of living cells",U87H-GFP [7],highly toxic
same,shift of FACS fluorescence profile / increase in H-GFP gene expression,U87H-GFP [2]; 100 nM TSA,completely superpose those of the untreated cells; also recorded: does not induce in any way an increase
same,increase in the fluorescence intensity mean value,U87H-GFP [2]; 200 nM TSA alone,approximately two-fold; also recorded: about a two-fold
same,increase in the fluorescence intensity,U87H-GFP [2]; 500 nM TSA,slight but significant increase
same,shift of FACS fluorescence profile toward higher fluorescence intensity,U87H-GFP [2]; 1 μM TSA,clearly visible; also recorded: attains a saturation threshold
same,increase in the fluorescence intensity mean value,U87H-GFP [2]; 1 μM TSA,three-fold
same,increase in the fluorescence intensity mean value,U87H-GFP [2]; 3 μM TSA,four-fold
same,increase in the fluorescence intensity,U87H-GFP [2]; TSA concentrations lower than 500 nM,not at the lower concentrations used
same,shift of FACS fluorescence profile,U87 [4]; 1 μM TSA,small shift
same,increase in fluorescence,U87 [4]; 3 μM TSA,two-fold
same,increase in the green fluorescent signal,U87H-GFP [6]; 1 μM TSA,clearly defined
same,"upregulation of the CMV promoter, visible due to increased GFP fluorescence",U87H-GFP [6],very strong upregulation
